SMILES strings stand for the structures. A value given as a limit tells only on which side of the number the result lay.

In patent US20240166641A1, “HETEROCYCLES AND USES THEREOF” (Kumquat Biosciences Inc., priority 2021, published 2024) one finds IC50 and activity data, which are given here for seven compounds.

Experiment [1] has as its target T1, PTPN2 (Homo sapiens, UniProt P17706).
T1 sequence (P17706 1-415): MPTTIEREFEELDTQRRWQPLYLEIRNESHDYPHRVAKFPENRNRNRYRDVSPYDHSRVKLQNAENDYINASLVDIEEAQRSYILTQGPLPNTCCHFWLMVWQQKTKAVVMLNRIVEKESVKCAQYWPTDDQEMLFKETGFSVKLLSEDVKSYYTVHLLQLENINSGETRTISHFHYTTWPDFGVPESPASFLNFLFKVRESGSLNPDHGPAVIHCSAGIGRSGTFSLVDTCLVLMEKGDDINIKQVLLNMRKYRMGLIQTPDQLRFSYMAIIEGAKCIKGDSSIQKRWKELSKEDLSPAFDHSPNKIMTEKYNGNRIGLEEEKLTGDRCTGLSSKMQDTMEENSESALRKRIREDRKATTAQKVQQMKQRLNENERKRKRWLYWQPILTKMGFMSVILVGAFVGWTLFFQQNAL
Nature of the experiment: Phosphatase activity assay (Bio-Biochem-DiFMUP), PTPN2. The format is biochemical. The note with it: DiFMUP substrate, room temperature. The method in brief: (§1)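 Buffer was 50 mM Bis-Tris pH 6.3, 2 mM EDTA, 5 mM DMH, with 10 μM FDP or DiFMUP substrate, enzyme added last, at room temperature. Fluorescent product was read continuously for 15–30 min (DiFMU ex 360/em 450 nm; FMP ex 440/em 530 nm). Initial rates against 10-point inhibitor series were fitted with a 4-parameter equation to give IC50.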

The target in experiment [2] is T2, PTP1B (Homo sapiens, UniProt P18031).
T2 sequence (P18031 1-435): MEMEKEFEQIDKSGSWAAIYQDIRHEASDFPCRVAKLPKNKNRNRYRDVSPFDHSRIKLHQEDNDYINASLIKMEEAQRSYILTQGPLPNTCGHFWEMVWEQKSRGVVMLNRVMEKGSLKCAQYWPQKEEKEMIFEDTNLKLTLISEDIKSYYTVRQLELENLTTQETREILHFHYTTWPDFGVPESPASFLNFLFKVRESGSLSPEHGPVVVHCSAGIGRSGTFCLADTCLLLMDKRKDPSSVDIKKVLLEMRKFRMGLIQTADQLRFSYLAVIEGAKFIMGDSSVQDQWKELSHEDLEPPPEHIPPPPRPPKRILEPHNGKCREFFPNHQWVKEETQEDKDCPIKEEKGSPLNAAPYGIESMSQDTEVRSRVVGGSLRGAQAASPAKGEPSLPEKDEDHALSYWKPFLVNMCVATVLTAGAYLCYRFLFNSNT
Nature of the experiment: Phosphatase activity assay (Bio-Biochem-DiFMUP), PTP1B. The note with it: DiFMUP substrate, room temperature. It counts as biochemical. The method in brief:
as §1

For experiment [3], the system named is OT-1 cells. Nature of the experiment: T-cell activation: intracellular production of IFNγ and TNFα in exhausted OT-1 cells. It counts as cell-based. To be noted: 10 uM compound, OT-1 cells restimulated with 1 μM OVA, read-out: % TNFa + /IFNg + production in compound-treated cells (uM compound) relative to negative control (DMSO). As to the method:
1*10^6 OT-1 cells are seeded in a 24well in a volume of 1 mL of RPMI/10% FCS, and activated with 10 nM OVA protein for 48 h. Cells are then split 1:4 into 96well plates after two washes in warm media. To induce exhaustion, cells are then expanded for 3 days in the presence of vehicle control or a compound described herein (e.g., PTPN2 inhibitor) various concentrations, as well as 5 ng/ml IL-7 and 5 ng/ml IL-15, with the addition of fresh OVA on each day. After this point, cells are treated with Brefeldin A and restimulated with 1 μM of OVA for 4-6h, and cells are stained to assess production of IFNγ and TNFα intracellularly by flow cytometry. The results are shown as increase in percentage production of IFNγ and TNFα in cells treated with an exemplified compound at 10 uM, relative to a negative control (DMSO) of cells without being treated with the compound but merely DMSO (a solvent in which exemplified compounds are dissolved). See Table 10 below summarizes percentage increase in IFNγ and TNFα intracellular production in cells treated with an exemplified compound (at 10 uM) or without it, relative to a negative control (DMSO).

Usually IC50 stands for the midpoint of a concentration-inhibition curve. For the compound `CC(C)CCNc1ccc2cc(O)c(N3CC(=O)NS3(=O)=O)c(F)c2n1` [Compound 117], the IC50 in experiment [1] and in experiment [2] was ≤ 1000 nM in each case. For the same compound, the activity at 10 µM in experiment [3] is 236%.

As to `CC(C)CCOc1ccc2cc(O)c(N3CC(=O)NS3(=O)=O)c(F)c2n1` [Compound 135, 5-(8-fluoro-6-hydroxy-2-(isopentyloxy)quinolin-7-yl)-1,2,5-thiadiazolidin-3-one 1,1-dioxide], the IC50 in experiment [1] and in experiment [2] was ≤ 1000 nM each time. In addition, the activity at 10 µM in experiment [3] is 504%.

Turning to `O=C1CN(c2c(O)cc3ccc(OCC4CCS(=O)(=O)CC4)nc3c2F)S(=O)(=O)N1` [Compound 143], the IC50 in experiment [1] and in experiment [2] was ≤ 1000 nM in each case. Also, in experiment [3], the activity at 10 µM amounted to 174%.

Take `CNc1ccc2cc(O)c(N3CC(=O)NS3(=O)=O)c(F)c2n1` [Compound 153]: the IC50 in experiment [1] and in experiment [2] was ≤ 1000 nM each time. In experiment [3], the activity at 10 µM came out at 132%.

`COc1ccc2cc(O)c(N3CC(=O)NS3(=O)=O)c(F)c2n1` [Compound 154]: the IC50 in experiment [1] and in experiment [2] was ≤ 1000 nM in each case. Further, in experiment [3], the activity at 10 µM turned out to be 152%.

With `CN1CCCC(COc2ccc3cc(O)c(N4CC(=O)NS4(=O)=O)c(F)c3n2)C1` (stereo not drawn) [Compound 176], the IC50 in experiment [1] and in experiment [2] was ≤ 1000 nM in each case. Also, in experiment [3], the activity at 10 µM is 193%.

As for `CN(C)CCOc1ccc2cc(O)c(N3CC(=O)NS3(=O)=O)c(F)c2n1` [Compound 178], the IC50 in experiment [1] and in experiment [2] was ≤ 1000 nM in each case. For the same compound, the activity at 10 µM in experiment [3] stood at 168%.
